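Cells were grown in 96-well plates and exposed to each compound for 48 hours at five concentrations; endpoints were interpolated linearly between bracketing concentrations, or set to the highest concentration if not reached. GI50 is the concentration that inhibits growth by half.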 Activity calls are given as the source filed them. No stated cut-off is given here; in the data, active = GI50 up to about 1.1 µM and inactive = higher.
Columns and labels:
Assay in all cases: DTP human tumour cell line panel, 48 h
EKVX = tested on: EKVX
NCI-H23 = tested on: NCI-H23
M14 = tested on: M14
OVCAR-5 = tested on: OVCAR-5
T47D = tested on: T47D
MDA-MB-231 = tested on: MDA-MB-231
SR = tested on: SR
HCT-15 = tested on: HCT-15
SK-MEL-2 = tested on: SK-MEL-2
SNB-19 = tested on: SNB-19
ACHN = tested on: ACHN
UACC-257 = tested on: UACC-257
HT-29 = tested on: HT-29
KM12 = tested on: KM12
BT-549 = tested on: BT-549
OVCAR-4 = tested on: OVCAR-4
NCI-H460 = tested on: NCI-H460
SN12C = tested on: SN12C
SNB-75 = tested on: SNB-75
HCT-116 = tested on: HCT-116
SK-OV-3 = tested on: SK-OV-3
Hs-578T = tested on: Hs-578T
A549 = tested on: A549
SK-MEL-5 = tested on: SK-MEL-5
TK-10 = tested on: TK-10
MCF7 = tested on: MCF7
DU-145 = tested on: DU-145
MDA-MB-435 = tested on: MDA-MB-435
SW-620 = tested on: SW-620
A498 = tested on: A498
HOP-62 = tested on: HOP-62
IGROV-1 = tested on: IGROV-1
COLO 205 = tested on: COLO 205
MOLT-4 = tested on: MOLT-4
LOX IMVI = tested on: LOX IMVI
SF-539 = tested on: SF-539
RPMI-8226 = tested on: RPMI-8226
NCI-H522 = tested on: NCI-H522
UACC-62 = tested on: UACC-62
K562 = tested on: K562
SK-MEL-28 = tested on: SK-MEL-28
786-0 = tested on: 786-0
MDA-N = tested on: MDA-N
OVCAR-8 = tested on: OVCAR-8
Malme-3M = tested on: Malme-3M
UO-31 = tested on: UO-31
PC-3 = tested on: PC-3
SF-295 = tested on: SF-295
HCC 2998 = tested on: HCC 2998
CCRF-CEM = tested on: CCRF-CEM
OVCAR-3 = tested on: OVCAR-3
RXF 393 = tested on: RXF 393
U-251 = tested on: U-251
NCI/ADR-RES = tested on: NCI/ADR-RES
SF-268 = tested on: SF-268
HL-60 = tested on: HL-60
CAKI-1 = tested on: CAKI-1
NCI-H226 = tested on: NCI-H226
HOP-92 = tested on: HOP-92

Compound: CCOC(=O)c1c2ccccc2n2c(N)c(C(N)=O)nnc12
- GI50 (EKVX): 18 µM (inactive)
- GI50 (NCI-H23): 16.7 µM (inactive)
- GI50 (M14): > 100 µM (inactive)
- GI50 (OVCAR-5): > 100 µM (inactive)
- GI50 (T47D): 43.1 µM (inactive)
- GI50 (MDA-MB-231): 18.7 µM (inactive)
- GI50 (SR): > 100 µM (inactive)
- GI50 (HCT-15): 78.9 µM
- GI50 (SK-MEL-2): 20.5 µM (inactive)
- GI50 (SNB-19): 19.3 µM (inactive)
- GI50 (ACHN): 6.07 µM (inactive)
- GI50 (UACC-257): 99.8 µM (inactive)
- GI50 (HT-29): > 100 µM (inactive)
- GI50 (KM12): > 100 µM (inactive)
- GI50 (BT-549): 22.1 µM (inactive)
- GI50 (OVCAR-4): > 100 µM (inactive)
- GI50 (NCI-H460): 50.4 µM (inactive)
- GI50 (SN12C): > 100 µM (inactive)
- GI50 (SNB-75): 11.7 µM (inactive)
- GI50 (HCT-116): 31.1 µM (inactive)
- GI50 (SK-OV-3): 13.9 µM (inactive)
- GI50 (Hs-578T): 4.36 µM (inactive)
- GI50 (A549): > 100 µM (inactive)
- GI50 (SK-MEL-5): 74.3 µM (inactive)
- GI50 (TK-10): 11.3 µM (inactive)
- GI50 (MCF7): 17.7 µM (inactive)
- GI50 (DU-145): > 100 µM (inactive)
- GI50 (MDA-MB-435): > 100 µM (inactive)
- GI50 (SW-620): > 100 µM (inactive)
- GI50 (A498): 21 µM (inactive)
- GI50 (HOP-62): 17.3 µM (inactive)
- GI50 (IGROV-1): 1.33 µM (inactive)
- GI50 (COLO 205): > 100 µM (inactive)
- GI50 (MOLT-4): > 100 µM (inactive)
- GI50 (LOX IMVI): 28.2 µM (inactive)
- GI50 (SF-539): 16.2 µM (inactive)
- GI50 (RPMI-8226): > 100 µM (inactive)
- GI50 (NCI-H522): 28.8 µM (inactive)
- GI50 (UACC-62): 19.9 µM (inactive)
- GI50 (K562): > 100 µM (inactive)
- GI50 (SK-MEL-28): > 100 µM (inactive)
- GI50 (786-0): 21.9 µM (inactive)
- GI50 (MDA-N): > 100 µM (inactive)
- GI50 (OVCAR-8): 16.1 µM (inactive)
- GI50 (Malme-3M): 70.8 µM (inactive)
- GI50 (UO-31): 74.3 µM (inactive)
- GI50 (PC-3): 60 µM (inactive)
- GI50 (SF-295): 33.1 µM (inactive)
- GI50 (HCC 2998): > 100 µM (inactive)
- GI50 (CCRF-CEM): > 100 µM (inactive)
- GI50 (OVCAR-3): > 100 µM (inactive)
- GI50 (RXF 393): 16.1 µM (inactive)
- GI50 (U-251): 15.2 µM (inactive)
- GI50 (NCI/ADR-RES): 35.3 µM (inactive)
- GI50 (SF-268): 16 µM (inactive)
- GI50 (HL-60): > 100 µM (inactive)
- GI50 (CAKI-1): 32.8 µM (inactive)

Compound: COc1cc(=O)oc(/C=C/C=C/C=C/C(C)=C\C2(C)OC(C)C(C)(O)C2O)c1C (centres undefined)
- GI50 (EKVX): > 100 µM (inactive)
- GI50 (NCI-H23): > 100 µM (inactive)
- GI50 (M14): > 100 µM (inactive)
- GI50 (OVCAR-5): > 100 µM (inactive)
- GI50 (T47D): > 100 µM (inactive)
- GI50 (MDA-MB-231): > 100 µM (inactive)
- GI50 (SR): > 100 µM (inactive)
- GI50 (HCT-15): > 100 µM
- GI50 (SK-MEL-2): > 100 µM (inactive)
- GI50 (SNB-19): > 100 µM (inactive)
- GI50 (ACHN): > 100 µM (inactive)
- GI50 (UACC-257): > 100 µM (inactive)
- GI50 (HT-29): > 100 µM (inactive)
- GI50 (KM12): 87.9 µM (inactive)
- GI50 (BT-549): > 100 µM (inactive)
- GI50 (NCI-H460): > 100 µM (inactive)
- GI50 (SN12C): > 100 µM (inactive)
- GI50 (SNB-75): 68.7 µM (inactive)
- GI50 (HCT-116): > 100 µM (inactive)
- GI50 (SK-OV-3): > 100 µM (inactive)
- GI50 (Hs-578T): 0.923 µM (active)
- GI50 (A549): > 100 µM (inactive)
- GI50 (SK-MEL-5): > 100 µM (inactive)
- GI50 (TK-10): > 100 µM (inactive)
- GI50 (MCF7): > 100 µM (inactive)
- GI50 (DU-145): > 100 µM (inactive)
- GI50 (MDA-MB-435): > 100 µM (inactive)
- GI50 (SW-620): > 100 µM (inactive)
- GI50 (A498): > 100 µM (inactive)
- GI50 (HOP-62): > 100 µM (inactive)
- GI50 (IGROV-1): > 100 µM (inactive)
- GI50 (COLO 205): > 100 µM (inactive)
- GI50 (MOLT-4): > 100 µM (inactive)
- GI50 (LOX IMVI): > 100 µM (inactive)
- GI50 (SF-539): > 100 µM (inactive)
- GI50 (RPMI-8226): > 100 µM (inactive)
- GI50 (UACC-62): > 100 µM (inactive)
- GI50 (K562): > 100 µM (inactive)
- GI50 (SK-MEL-28): > 100 µM (inactive)
- GI50 (786-0): > 100 µM (inactive)
- GI50 (MDA-N): > 100 µM (inactive)
- GI50 (OVCAR-8): > 100 µM (inactive)
- GI50 (UO-31): > 100 µM (inactive)
- GI50 (PC-3): > 100 µM (inactive)
- GI50 (NCI-H226): > 100 µM (inactive)
- GI50 (HOP-92): > 100 µM (inactive)
- GI50 (SF-295): > 100 µM (inactive)
- GI50 (CCRF-CEM): > 100 µM (inactive)
- GI50 (OVCAR-3): > 100 µM (inactive)
- GI50 (U-251): > 100 µM (inactive)
- GI50 (NCI/ADR-RES): > 100 µM (inactive)
- GI50 (SF-268): > 100 µM (inactive)
- GI50 (HL-60): > 100 µM (inactive)
- GI50 (CAKI-1): > 100 µM (inactive)

Compound: Oc1ccc(-c2c3ccccc3c(-c3ccc(OCCBr)cc3)c3ccccc23)cc1
- GI50 (EKVX): 32.9 µM (inactive)
- GI50 (NCI-H23): 15.6 µM (inactive)
- GI50 (M14): 21 µM (inactive)
- GI50 (OVCAR-5): 27.1 µM (inactive)
- GI50 (T47D): 35.7 µM (inactive)
- GI50 (MDA-MB-231): 23.6 µM (inactive)
- GI50 (SR): 31.8 µM (inactive)
- GI50 (HCT-15): 30.7 µM
- GI50 (SK-MEL-2): 22.2 µM (inactive)
- GI50 (SNB-19): 29.4 µM (inactive)
- GI50 (ACHN): 29.1 µM (inactive)
- GI50 (UACC-257): 24.2 µM (inactive)
- GI50 (HT-29): 19.6 µM (inactive)
- GI50 (KM12): 29.4 µM (inactive)
- GI50 (BT-549): 30.1 µM (inactive)
- GI50 (OVCAR-4): 24.2 µM (inactive)
- GI50 (NCI-H460): 52.6 µM (inactive)
- GI50 (SN12C): 22.1 µM (inactive)
- GI50 (SNB-75): 25.1 µM (inactive)
- GI50 (HCT-116): 37.2 µM (inactive)
- GI50 (SK-OV-3): 52.7 µM (inactive)
- GI50 (Hs-578T): 24.3 µM (inactive)
- GI50 (A549): 28.4 µM (inactive)
- GI50 (SK-MEL-5): 19.1 µM (inactive)
- GI50 (TK-10): 34.5 µM (inactive)
- GI50 (MCF7): 14.4 µM (inactive)
- GI50 (DU-145): > 100 µM (inactive)
- GI50 (MDA-MB-435): 21.7 µM (inactive)
- GI50 (SW-620): 53.3 µM (inactive)
- GI50 (A498): 23.2 µM (inactive)
- GI50 (HOP-62): 24 µM (inactive)
- GI50 (IGROV-1): 22 µM (inactive)
- GI50 (COLO 205): 31.2 µM (inactive)
- GI50 (MOLT-4): > 100 µM (inactive)
- GI50 (LOX IMVI): 16.9 µM (inactive)
- GI50 (SF-539): 13.9 µM (inactive)
- GI50 (RPMI-8226): 31.1 µM (inactive)
- GI50 (NCI-H522): 35 µM (inactive)
- GI50 (UACC-62): 19.7 µM (inactive)
- GI50 (K562): 42.1 µM (inactive)
- GI50 (SK-MEL-28): 27.9 µM (inactive)
- GI50 (786-0): 21.9 µM (inactive)
- GI50 (MDA-N): 26.4 µM (inactive)
- GI50 (OVCAR-8): 22 µM (inactive)
- GI50 (Malme-3M): 14.7 µM (inactive)
- GI50 (UO-31): 67.6 µM (inactive)
- GI50 (PC-3): 27.4 µM (inactive)
- GI50 (NCI-H226): 20 µM (inactive)
- GI50 (SF-295): 16 µM (inactive)
- GI50 (HCC 2998): 44.2 µM (inactive)
- GI50 (CCRF-CEM): 60.1 µM (inactive)
- GI50 (OVCAR-3): 14.6 µM (inactive)
- GI50 (RXF 393): 24.7 µM (inactive)
- GI50 (U-251): 32.3 µM (inactive)
- GI50 (NCI/ADR-RES): 19.6 µM (inactive)
- GI50 (SF-268): 56.1 µM (inactive)
- GI50 (HL-60): 47.5 µM (inactive)
- GI50 (CAKI-1): 27.4 µM (inactive)

Reference: ChEMBL document CHEMBL1201862, “PubChem BioAssay data set” (2004)
